Legend:
[1] = molecular target: Serine/threonine-protein kinase B-raf (Homo sapiens) (UniProt P15056); experiment: Inhibition of wild-type human partial length BRAF (S429 to E741 residues) expressed in mammalian expression system at 1 uM by Kinomescan method relative to control
[2] = molecular target: Cyclin-dependent kinase 8 (Homo sapiens) (UniProt P49336); experiment: Inhibition of wild-type human partial length CDK8 (M1 to T360 residues) expressed in bacterial expression system at 1 uM by Kinomescan method relative to control
[3] = molecular target: Serine/threonine-protein kinase DCLK1 (Homo sapiens) (UniProt O15075); experiment: Inhibition of wild-type human partial length DCAMKL1 (L270 to A662 residues) expressed in mammalian expression system at 1 uM by Kinomescan method relative to control
[4] = molecular target: Ephrin type-B receptor 6 (Homo sapiens) (UniProt O15197); experiment: Inhibition of wild-type human partial length EPHB6 (Q634 to P948 residues) expressed in mammalian expression system at 1 uM by Kinomescan method relative to control
[5] = molecular target: Mast/stem cell growth factor receptor Kit (Homo sapiens) (UniProt P10721); experiment: Inhibition of wild-type human partial length KIT (I571 to D952 residues) expressed in bacterial expression system at 1 uM by Kinomescan method relative to control
[6] = molecular target: Tyrosine-protein kinase Lck (Homo sapiens) (UniProt P06239); experiment: Inhibition of wild-type human partial length LCK (R207 to P509 residues) expressed in bacterial expression system at 1 uM by Kinomescan method relative to control
[7] = molecular target: Mitogen-activated protein kinase kinase kinase 1 (Homo sapiens) (UniProt Q13233); experiment: Inhibition of wild-type human partial length MAP3K1 (L1202 to W1512 residues) expressed in mammalian expression system at 1 uM by Kinomescan method relative to control
[8] = molecular target: Maternal embryonic leucine zipper kinase (Homo sapiens) (UniProt Q14680); experiment: Inhibition of wild-type human full length MELK (M1 to V651 residues) expressed in bacterial expression system at 1 uM by Kinomescan method relative to control
[9] = molecular target: Serine/threonine-protein kinase PLK4 (Homo sapiens) (UniProt O00444); experiment: Inhibition of wild-type human partial length PLK4 (M1 to S273 residues) expressed in mammalian expression system at 1 uM by Kinomescan method relative to control
[10] = molecular target: Uncharacterized serine/threonine-protein kinase SBK3 (Homo sapiens) (UniProt P0C264); experiment: Inhibition of wild-type human partial length SgK110 (L22 to R329 residues) expressed in bacterial expression system at 1 uM by Kinomescan method relative to control
Sequence of Uncharacterized serine/threonine-protein kinase SBK3 (Homo sapiens) (P0C264 whole entry, the tested form may be a part): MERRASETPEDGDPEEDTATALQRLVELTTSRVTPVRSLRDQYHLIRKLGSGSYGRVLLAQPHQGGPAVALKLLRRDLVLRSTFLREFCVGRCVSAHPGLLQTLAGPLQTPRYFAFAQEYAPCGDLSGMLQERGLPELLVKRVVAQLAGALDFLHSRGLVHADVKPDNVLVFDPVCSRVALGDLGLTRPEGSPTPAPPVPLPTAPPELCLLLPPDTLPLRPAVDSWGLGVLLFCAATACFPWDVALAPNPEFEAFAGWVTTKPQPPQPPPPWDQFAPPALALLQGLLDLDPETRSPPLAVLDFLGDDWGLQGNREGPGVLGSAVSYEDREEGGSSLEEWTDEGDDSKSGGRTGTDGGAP

[11] = molecular target: Serine/threonine-protein kinase TAO2 (Homo sapiens) (UniProt Q9UL54); experiment: Inhibition of wild-type human partial length TAOK2 (M1 to A320 residues) expressed in mammalian expression system at 1 uM by Kinomescan method relative to control
Sequence of Serine/threonine-protein kinase TAO2 (Homo sapiens) (Q9UL54 whole entry, the tested form may be a part): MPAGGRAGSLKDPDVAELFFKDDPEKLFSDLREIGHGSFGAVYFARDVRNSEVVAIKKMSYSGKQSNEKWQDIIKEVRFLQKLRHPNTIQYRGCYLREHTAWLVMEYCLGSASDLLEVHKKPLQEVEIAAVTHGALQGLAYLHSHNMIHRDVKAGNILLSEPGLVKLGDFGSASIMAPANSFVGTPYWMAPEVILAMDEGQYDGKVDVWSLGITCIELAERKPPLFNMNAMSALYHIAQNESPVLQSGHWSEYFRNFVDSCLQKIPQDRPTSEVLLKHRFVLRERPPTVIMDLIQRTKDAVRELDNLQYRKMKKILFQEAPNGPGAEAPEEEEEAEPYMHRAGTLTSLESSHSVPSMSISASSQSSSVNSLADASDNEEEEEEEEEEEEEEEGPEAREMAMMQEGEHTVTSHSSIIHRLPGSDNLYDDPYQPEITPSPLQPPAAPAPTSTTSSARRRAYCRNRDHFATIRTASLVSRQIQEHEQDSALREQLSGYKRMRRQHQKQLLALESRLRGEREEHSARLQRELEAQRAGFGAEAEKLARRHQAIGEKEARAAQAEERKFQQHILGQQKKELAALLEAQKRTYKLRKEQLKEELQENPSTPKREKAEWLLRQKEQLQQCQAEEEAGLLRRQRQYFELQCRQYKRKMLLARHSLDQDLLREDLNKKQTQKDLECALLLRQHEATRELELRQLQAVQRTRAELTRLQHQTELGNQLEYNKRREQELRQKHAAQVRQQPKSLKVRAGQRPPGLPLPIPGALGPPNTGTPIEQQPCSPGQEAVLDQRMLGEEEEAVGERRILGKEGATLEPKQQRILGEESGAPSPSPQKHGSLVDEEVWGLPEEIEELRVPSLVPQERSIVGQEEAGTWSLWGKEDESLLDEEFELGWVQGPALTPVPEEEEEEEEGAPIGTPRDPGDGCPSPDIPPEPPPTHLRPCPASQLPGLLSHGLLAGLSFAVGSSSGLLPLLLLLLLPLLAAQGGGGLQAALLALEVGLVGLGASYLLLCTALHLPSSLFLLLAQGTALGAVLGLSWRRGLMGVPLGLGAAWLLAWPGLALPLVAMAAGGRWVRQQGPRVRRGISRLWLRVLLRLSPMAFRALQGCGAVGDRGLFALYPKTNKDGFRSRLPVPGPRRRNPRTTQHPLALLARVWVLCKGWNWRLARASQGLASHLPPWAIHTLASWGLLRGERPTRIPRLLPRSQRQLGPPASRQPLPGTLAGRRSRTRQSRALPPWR

[12] = molecular target: Activated CDC42 kinase 1 (Homo sapiens) (UniProt Q07912); experiment: Inhibition of wild-type human partial length TNK2 (S159 to D474 residues) expressed in bacterial expression system at 1 uM by Kinomescan method relative to control
[13] = molecular target: Ankyrin repeat and protein kinase domain-containing protein 1 (Homo sapiens) (UniProt Q8NFD2); experiment: Inhibition of wild-type human partial length ANKK1 (M1 to A305 residues) expressed in mammalian expression system at 10 uM by Kinomescan method relative to control
Sequence of Ankyrin repeat and protein kinase domain-containing protein 1 (Homo sapiens) (Q8NFD2 whole entry, the tested form may be a part): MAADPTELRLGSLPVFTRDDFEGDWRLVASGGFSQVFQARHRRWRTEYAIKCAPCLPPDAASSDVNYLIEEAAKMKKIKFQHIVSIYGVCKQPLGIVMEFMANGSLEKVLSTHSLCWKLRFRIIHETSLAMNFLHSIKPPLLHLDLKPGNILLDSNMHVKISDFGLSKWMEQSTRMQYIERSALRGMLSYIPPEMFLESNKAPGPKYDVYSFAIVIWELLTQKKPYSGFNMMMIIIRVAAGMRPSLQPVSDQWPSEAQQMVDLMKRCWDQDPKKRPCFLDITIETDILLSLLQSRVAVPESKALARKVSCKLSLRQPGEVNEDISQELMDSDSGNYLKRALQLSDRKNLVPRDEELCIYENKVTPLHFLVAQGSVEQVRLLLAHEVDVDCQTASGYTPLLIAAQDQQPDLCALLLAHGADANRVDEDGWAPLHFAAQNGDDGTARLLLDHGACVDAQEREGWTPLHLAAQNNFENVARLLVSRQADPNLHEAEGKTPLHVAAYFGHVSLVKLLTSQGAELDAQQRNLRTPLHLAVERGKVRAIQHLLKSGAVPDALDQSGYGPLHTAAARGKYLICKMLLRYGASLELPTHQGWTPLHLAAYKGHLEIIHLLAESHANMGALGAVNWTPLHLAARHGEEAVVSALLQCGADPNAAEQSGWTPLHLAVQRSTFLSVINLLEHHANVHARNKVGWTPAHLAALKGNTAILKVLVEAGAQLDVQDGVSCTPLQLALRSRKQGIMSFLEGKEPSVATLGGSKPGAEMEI

[14] = molecular target: Cyclin-dependent kinase 9 (Homo sapiens) (UniProt P50750); experiment: Inhibition of wild-type human full length CDK9 (M1 to F372 residues) expressed in bacterial expression system at 10 uM by Kinomescan method relative to control
Sequence of Cyclin-dependent kinase 9 (Homo sapiens) (P50750 whole entry, the tested form may be a part): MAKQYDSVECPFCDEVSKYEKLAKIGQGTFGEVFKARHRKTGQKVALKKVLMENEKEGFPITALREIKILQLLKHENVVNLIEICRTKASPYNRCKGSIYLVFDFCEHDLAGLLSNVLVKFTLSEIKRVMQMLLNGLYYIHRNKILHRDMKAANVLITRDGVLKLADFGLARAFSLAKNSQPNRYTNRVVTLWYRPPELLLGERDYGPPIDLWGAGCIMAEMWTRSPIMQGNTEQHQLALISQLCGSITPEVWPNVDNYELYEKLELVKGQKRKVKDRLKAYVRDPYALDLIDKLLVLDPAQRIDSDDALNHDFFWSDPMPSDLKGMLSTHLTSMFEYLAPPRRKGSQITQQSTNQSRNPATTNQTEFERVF

[15] = molecular target: Cyclin-dependent kinase-like 2 (Homo sapiens) (UniProt Q92772); experiment: Inhibition of wild-type human partial length CDKL2 (M1 to D327 residues) expressed in bacterial expression system at 10 uM by Kinomescan method relative to control
[16] = molecular target: Ephrin type-A receptor 4 (Homo sapiens) (UniProt P54764); experiment: Inhibition of wild-type human partial length EPHA4 (T601 to R897 residues) expressed in bacterial expression system at 10 uM by Kinomescan method relative to control
[17] = molecular target: Ephrin type-B receptor 2 (Homo sapiens) (UniProt P29323); experiment: Inhibition of wild-type human partial length EPHB2 (I597 to L902 residues) expressed in bacterial expression system at 10 uM by Kinomescan method relative to control
[18] = molecular target: Mitogen-activated protein kinase 4 (Homo sapiens) (UniProt P31152); experiment: Inhibition of wild-type human partial length ERK4 (M1 to L365 residues) expressed in bacterial expression system at 10 uM by Kinomescan method relative to control
[19] = test system: Receptor-type tyrosine-protein kinase FLT3 (Homo sapiens), P36888 [N841I]; experiment: Inhibition of human partial length FLT3 N841I mutant (V592 to Y969 residues) expressed in bacterial expression system at 10 uM by Kinomescan method relative to control
[20] = molecular target: Serine/threonine-protein kinase 10 (Homo sapiens) (UniProt O94804); experiment: Inhibition of wild-type human partial length LOK (E16 to V314 residues) expressed in bacterial expression system at 10 uM by Kinomescan method relative to control
[21] = test system: Leucine-rich repeat serine/threonine-protein kinase 2 (Homo sapiens), Q5S007 [G2019S]; experiment: Inhibition of human partial length LRRK2 G2019S mutant (H970 to E2527 residues) expressed in mammalian expression system at 10 uM by Kinomescan method relative to control
[22] = molecular target: Serine/threonine-protein kinase MARK1 (Homo sapiens) (UniProt Q9P0L2); experiment: Inhibition of wild-type human partial length MARK1 (Q30 to T341 residues) expressed in bacterial expression system at 10 uM by Kinomescan method relative to control
Sequence of Serine/threonine-protein kinase MARK1 (Homo sapiens) (Q9P0L2 whole entry, looked up, the tested form may be a part): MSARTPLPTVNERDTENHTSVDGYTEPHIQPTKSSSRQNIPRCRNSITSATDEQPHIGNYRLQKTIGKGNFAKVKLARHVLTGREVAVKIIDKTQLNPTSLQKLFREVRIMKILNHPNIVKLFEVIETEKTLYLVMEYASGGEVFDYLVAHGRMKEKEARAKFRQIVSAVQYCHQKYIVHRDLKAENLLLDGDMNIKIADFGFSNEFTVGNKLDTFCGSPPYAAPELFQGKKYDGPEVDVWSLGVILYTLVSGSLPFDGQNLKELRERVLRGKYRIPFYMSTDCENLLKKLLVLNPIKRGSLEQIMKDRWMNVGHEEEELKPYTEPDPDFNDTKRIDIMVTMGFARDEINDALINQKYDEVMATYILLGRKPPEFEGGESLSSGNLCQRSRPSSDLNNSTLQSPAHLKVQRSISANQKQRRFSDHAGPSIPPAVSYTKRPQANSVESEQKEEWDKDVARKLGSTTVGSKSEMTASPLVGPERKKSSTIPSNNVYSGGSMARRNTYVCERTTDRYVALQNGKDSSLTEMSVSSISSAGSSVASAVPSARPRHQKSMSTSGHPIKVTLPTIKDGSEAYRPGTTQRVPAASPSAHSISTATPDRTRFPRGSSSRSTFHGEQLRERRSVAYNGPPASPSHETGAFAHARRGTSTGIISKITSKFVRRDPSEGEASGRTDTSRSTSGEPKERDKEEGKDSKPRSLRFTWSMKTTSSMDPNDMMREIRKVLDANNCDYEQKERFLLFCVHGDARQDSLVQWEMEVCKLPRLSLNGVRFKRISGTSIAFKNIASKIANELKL

[23] = molecular target: Cyclin-dependent kinase 16 (Homo sapiens) (UniProt Q00536); experiment: Inhibition of wild-type human partial length PCTK1 (G160 to A474 residues) expressed in mammalian expression system at 10 uM by Kinomescan method relative to control
Sequence of Cyclin-dependent kinase 16 (Homo sapiens) (Q00536 whole entry, the tested form may be a part): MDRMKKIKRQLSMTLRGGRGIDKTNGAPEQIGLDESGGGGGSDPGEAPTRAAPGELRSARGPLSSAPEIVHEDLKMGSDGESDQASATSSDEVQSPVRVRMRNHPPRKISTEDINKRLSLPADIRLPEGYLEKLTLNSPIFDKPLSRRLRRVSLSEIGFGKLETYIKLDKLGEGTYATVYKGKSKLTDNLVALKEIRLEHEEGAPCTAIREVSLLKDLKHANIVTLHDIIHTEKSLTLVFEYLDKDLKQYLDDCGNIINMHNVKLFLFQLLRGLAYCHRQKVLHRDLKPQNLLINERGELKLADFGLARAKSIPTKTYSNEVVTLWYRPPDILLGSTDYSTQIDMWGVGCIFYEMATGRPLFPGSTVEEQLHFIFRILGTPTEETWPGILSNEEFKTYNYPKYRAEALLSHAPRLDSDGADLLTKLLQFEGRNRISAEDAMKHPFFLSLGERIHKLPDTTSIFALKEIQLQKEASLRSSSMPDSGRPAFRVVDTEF

[24] = molecular target: Calcium-dependent protein kinase 1 (Plasmodium falciparum) (UniProt P62344); experiment: Inhibition of wild-type Plasmodium falciparum full length CDPK1 (M1 to S524 residues) expressed in mammalian expression system at 10 uM by Kinomescan method relative to control
[25] = test system: Phosphatidylinositol 4,5-bisphosphate 3-kinase catalytic subunit alpha isoform (Homo sapiens), P42336 [Q546K]; experiment: Inhibition of human partial length PIK3CA Q546K mutant (R108 to N1068 residues) expressed in mammalian expression system at 10 uM by Kinomescan method relative to control
[26] = molecular target: Proto-oncogene tyrosine-protein kinase Src (Homo sapiens) (UniProt P12931); experiment: Inhibition of wild-type human partial length SRC (L240 to L536 residues) expressed in bacterial expression system at 10 uM by Kinomescan method relative to control
[27] = molecular target: Serine/threonine-protein kinase ULK2 (Homo sapiens) (UniProt Q8IYT8); experiment: Inhibition of wild-type human partial length ULK2 (M1 to S301 residues) expressed in mammalian expression system at 10 uM by Kinomescan method relative to control
Sequence of Serine/threonine-protein kinase ULK2 (Homo sapiens) (Q8IYT8 whole entry, the tested form may be a part): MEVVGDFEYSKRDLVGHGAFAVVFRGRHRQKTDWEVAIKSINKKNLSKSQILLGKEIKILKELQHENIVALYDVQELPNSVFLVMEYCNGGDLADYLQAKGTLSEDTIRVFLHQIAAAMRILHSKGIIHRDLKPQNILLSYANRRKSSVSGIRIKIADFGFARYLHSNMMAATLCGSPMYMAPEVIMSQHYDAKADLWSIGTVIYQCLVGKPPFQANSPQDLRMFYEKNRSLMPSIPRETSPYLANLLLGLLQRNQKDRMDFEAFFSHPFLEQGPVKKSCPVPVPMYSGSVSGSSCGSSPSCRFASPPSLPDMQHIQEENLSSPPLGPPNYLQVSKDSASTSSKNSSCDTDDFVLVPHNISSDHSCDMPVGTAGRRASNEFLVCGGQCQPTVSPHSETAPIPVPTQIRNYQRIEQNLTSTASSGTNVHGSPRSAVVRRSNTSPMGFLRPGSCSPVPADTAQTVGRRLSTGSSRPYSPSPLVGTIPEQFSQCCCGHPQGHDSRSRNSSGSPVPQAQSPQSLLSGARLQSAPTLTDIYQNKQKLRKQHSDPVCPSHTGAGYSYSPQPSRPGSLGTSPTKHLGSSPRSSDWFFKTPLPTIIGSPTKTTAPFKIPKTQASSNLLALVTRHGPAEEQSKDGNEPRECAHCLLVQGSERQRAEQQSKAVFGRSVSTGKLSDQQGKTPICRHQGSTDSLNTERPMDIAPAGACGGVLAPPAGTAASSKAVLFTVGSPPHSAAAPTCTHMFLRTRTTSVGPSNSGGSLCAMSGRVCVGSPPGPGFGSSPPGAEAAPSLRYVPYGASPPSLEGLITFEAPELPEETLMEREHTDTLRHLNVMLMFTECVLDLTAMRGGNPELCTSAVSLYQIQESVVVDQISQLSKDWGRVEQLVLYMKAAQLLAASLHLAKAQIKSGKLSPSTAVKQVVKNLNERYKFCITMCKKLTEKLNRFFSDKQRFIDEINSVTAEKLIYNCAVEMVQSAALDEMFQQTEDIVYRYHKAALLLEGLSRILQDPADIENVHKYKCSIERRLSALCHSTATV

## O=C(Nc1cccc([C@@H]2CN(c3ncnc4[nH]ccc34)CCN2CCO)c1)Nc1c(F)cccc1N1CCCC1
[1]
  inhibition: 86%
[2]
  inhibition: 84%
[3]
  inhibition: 36%
[4]
  inhibition: 100%
[5]
  inhibition: 73%
[6]
  inhibition: 56%
[7]
  inhibition: 70%
[8]
  inhibition: 23%
[9]
  inhibition: 6.3%
[10]
  inhibition: 100%
[11]
  inhibition: 85%
[12]
  inhibition: 100%

## O=C(Nc1cccc([C@H]2CCCN(c3ncnc4[nH]ccc34)C2)c1)Nc1ccccc1N1CCCC1
[13]
  inhibition: 96%
[14]
  inhibition: 100%
[15]
  inhibition: 38%
[16]
  inhibition: 98%
[17]
  inhibition: 69%
[18]
  inhibition: 100%
[19]
  inhibition: 12%
[20]
  inhibition: 0.45%
[21]
  inhibition: 63%
[22]
  inhibition: 81%
[23]
  inhibition: 70%
[24]
  inhibition: 9.9%
[25]
  inhibition: 81%
[26]
  inhibition: 80%
[27]
  inhibition: 50%

— ChEMBL document CHEMBL4387741, “Optimization of novel reversible Bruton's tyrosine kinase inhibitors identified using Tethering-fragment-based screens” (Bioorg Med Chem, 2019)
